From patent US12076357B2, “Preparations containing berry extracts for use in the prophylaxis and/or treatment of viral infections caused by Paramyxoviridae” (Evonik Operations GmbH, priority 2019, dated 2024) come the findings set out here.

The experiment concerns GFP-encoding measles virus. The experiment in a line: Measles virus replication, infected cells counted with PerkinElmer Ensight system (Part II). To be noted: 75 μg/mL, quadruplets.

SMILES strings stand for the structures.

Description: Vero-Slam cells were incubated with decreasing concentration of the solubilized test compounds. All concentrations were analyzed on three independent six-well plates or by independent six replicates on a black 96well plate (PerkinElmer). Cells were infected with GFP-encoding wild-type measles virus and incubated for two days. […] Part II: Two days after infection measles virus-infected cells and GFP expressing cells were directly counted using the PerkinElmer Ensight system with optical cell culture plates. The instrument was controlled by manual counting. Viral titers were calculated as infectious particles per mL.
However, in contrast to the previous experiments, infected cells were counted with the PerkinElmer Ensight system, since this system allows to quantify changes in viral titers on single cell level.
However, only non-toxic compound concentrations were applied.
The cells were subsequently infected with GFP-encoding measles virus, and GFP expressing cells were quantified with the Perkin Elmer Ensight reader. All infections were performed in triplicate assays.

As to `C[C@@H]1O[C@@H](OC[C@H]2O[C@@H](Oc3cc4c(O)cc(O)cc4[o+]c3-c3cc(O)c(O)c(O)c3)[C@H](O)[C@@H](O)[C@@H]2O)[C@H](O)[C@H](O)[C@H]1O` [D3R, delphinidin 3-rutinoside], the “number of infected cells” value is listed as “reduced the number of infected cells”.
